# Key:
# Test in all cases: Inhibition of in vitro proliferation of tumor cells (CellTiter Glo)
# Format in all cases: cell-based, human
# Calu-6 = conditions: Calu-6, 120 h incubation
# Method: (§1) Human-derived tumor cells in logarithmic growth phase were taken, trypsin-digested and resuspended using fresh complete culture medium, counted and adjusted to an appropriate concentration, and added into 96-well cell culture plate at 100 μL/well. The cell culture plate was placed in a 37° C., 5% CO2 incubator and incubated overnight. On the next day, different concentrations of ADC samples to be tested (with the highest final concentration of 1 μM, and 4-fold gradient dilution) or buffer control were added to the corresponding wells of the cell culture plate, and continued to be incubated in a CO2 incubator for 120 h. After equilibrated to room temperature, the test plate was analyzed by using a CellTiter Glo assay kit (Promega, G7558) and a multifunctional enzyme labeling instrument (Enspire 2300, PerkinElmer) to detect luminescence readings. The cellular inhibition rate was calculated according to the following equation: inhibition rate (%)=(1−(RLUADC−RLUblank)/(RLUbuffer−RLUblank))×100%, wherein, RLU represents Relative Luminescence Units. XLFit was utilized to plot the pharmacodynamic inhibition rate curve and to calculate the IC50 values (see Tables 4 and 5).
# HepG2 = conditions: HepG2, 120 h incubation
# Method: as §1
# NCI-H1975 = conditions: NCI-H1975, 120 h incubation
# Method: as §1
# NCI-N87 = conditions: NCI-N87, 120 h incubation
# Method: as §1
substance,measurement,setting,value
Control ADC2: antibody Ifinatamab conjugated with linker-payload MC-GGFG-DXd,IC50,Calu-6,126 nM
same,IC50,HepG2,220 nM
same,IC50,NCI-H1975,650 nM
same,IC50,NCI-N87,288 nM

# Reference: US20260041780A1, “ANTIBODY-DRUG CONJUGATE AND USE THEREOF” (MINGHUI PHARMACEUTICAL (HANGZHOU) LIMITED, priority 2022, published 2026)
